Experimental findings from paper PMC10004634 (PLOS ONE, 2023) are described below.

One assay concerns the target BTK (Homo sapiens, UniProt Q06187). The assay is described as follows: KINOMEscan binding assay. As to conditions: 300 nM; read-out: inhibition of kinase binding (KINOMEscan).
In a further assay the test system is B-cells in human PBMC. The assay is described as follows: PBMC stimulation assay, anti-IgM-stimulated B-cell activation (CD69). The format is cell-based. As to conditions: anti-IgM 1 μg/mL, 22 h, read-out: IC50 of CD69 inhibition, anti-IgM-stimulated B-cell activation. As to the method: After culturing, the stimulated cells were stained with fluorescently labeled CD3, CD20, and CD69 antibodies. B-cells (identified by gating CD20-positive and CD3-negative cells) and T-cells (identified by gating CD3-positive and CD20-negative cells) were analyzed by flow cytometry to monitor the expression of CD69. […] GraphPad Prism version 5.04 (GraphPad Software, Inc., San Diego, CA, USA) and its base settings were used for initial values and convergence conditions.

Another assay relates to TMD8 xenograft tumor. Nature of the assay: Gene set enrichment analysis (GSEA) of TMD8 xenograft microarray data. Type of assay: in vivo, mouse.
A further assay concerns the target ACVRL1 (Homo sapiens, UniProt P37023). Nature of the assay: biochemical. Further details: KINOMEscan scanMAX competition binding, DNA-tagged kinases, qPCR read-out, percent control at 300 nM.
A further assay deals with FLT3(D835H) (Homo sapiens, UniProt P36888, D835H). The assay is described as follows: biochemical. Further details: KINOMEscan scanMAX competition binding, DNA-tagged kinases, qPCR read-out, percent control at 300 nM.
The next assay concerns the target CSK (Homo sapiens, UniProt P41240). Nature of the assay: mobility shift assay (MSA).
Assay [1] concerns the target T1, TEC (Homo sapiens, UniProt P42680).
T1 sequence (P42680 1-631): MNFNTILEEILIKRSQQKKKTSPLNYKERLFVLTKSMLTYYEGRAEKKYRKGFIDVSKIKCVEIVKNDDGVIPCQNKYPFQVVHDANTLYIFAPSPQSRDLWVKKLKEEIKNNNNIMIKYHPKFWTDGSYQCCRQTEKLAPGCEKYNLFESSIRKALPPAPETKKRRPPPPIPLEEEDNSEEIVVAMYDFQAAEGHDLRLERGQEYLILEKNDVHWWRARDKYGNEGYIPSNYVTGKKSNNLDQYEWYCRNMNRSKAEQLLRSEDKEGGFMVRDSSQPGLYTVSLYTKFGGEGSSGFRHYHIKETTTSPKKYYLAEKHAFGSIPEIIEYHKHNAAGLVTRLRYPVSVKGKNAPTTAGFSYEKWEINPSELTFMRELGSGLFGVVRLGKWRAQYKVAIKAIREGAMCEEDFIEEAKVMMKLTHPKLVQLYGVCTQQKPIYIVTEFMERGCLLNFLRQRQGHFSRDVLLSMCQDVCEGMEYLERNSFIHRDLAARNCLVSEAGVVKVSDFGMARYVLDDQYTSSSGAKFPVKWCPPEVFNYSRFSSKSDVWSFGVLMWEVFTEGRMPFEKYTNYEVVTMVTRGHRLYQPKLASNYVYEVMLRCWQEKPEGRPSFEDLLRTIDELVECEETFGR
The assay is described as follows: KINOMEscan binding assay. Further details: purchased Eurofins DiscoverX (KINOMEscan scanMAX service).

In a further assay the target is ACVR2B (Homo sapiens, UniProt Q13705). Nature of the assay: biochemical. Further details: KINOMEscan scanMAX competition binding, DNA-tagged kinases, qPCR read-out, percent control at 300 nM.
Another assay concerns the target CDKL1 (Homo sapiens, UniProt Q00532). The assay is described as follows: biochemical. Further details: KINOMEscan scanMAX competition binding, DNA-tagged kinases, qPCR read-out, percent control at 300 nM.
The next assay concerns the target T2, FAK (Homo sapiens, UniProt Q05397).
T2 construct: gene PTK2
The assay is described as follows: biochemical. Further details: KINOMEscan scanMAX competition binding, DNA-tagged kinases, qPCR read-out, percent control at 300 nM.

The target in a further assay is PRKCI (Homo sapiens, UniProt P41743). The assay is described as follows: biochemical. Further details: KINOMEscan scanMAX competition binding, DNA-tagged kinases, qPCR read-out, percent control at 300 nM.
For a further assay, the target named is T3, QSK (Homo sapiens, UniProt Q9Y2K2).
T3 construct: gene SIK3
Nature of the assay: biochemical. Further details: KINOMEscan scanMAX competition binding, DNA-tagged kinases, qPCR read-out, percent control at 300 nM.

The target of a further assay is TAOK3 (Homo sapiens, UniProt Q9H2K8). The assay is described as follows: biochemical. Further details: KINOMEscan scanMAX competition binding, DNA-tagged kinases, qPCR read-out, percent control at 300 nM.
Another assay deals with WEE2 (Homo sapiens, UniProt P0C1S8). The assay is described as follows: biochemical. Further details: KINOMEscan scanMAX competition binding, DNA-tagged kinases, qPCR read-out, percent control at 300 nM.
The target of assay [2] is T1, TEC. The assay is described as follows: LanthaScreen Eu kinase binding assay. Further details: purchased Thermo Fisher Scientific (Invitrogen LanthaScreen service). Conditions: 60 min preincubation. The method, then: In all the assays, each test compound was preincubated with peptide/kinase mixture or kinase/antibody mixture for 60 min at room temperature before adding the ATP solution or AlexaFluor labeled Tracer to initiate the 60-min incubation of the reactants.

[3] abbreviates: GSEA report for tirabrutinib 10, 10 mg/kg vs vehicle.
The mark [4] stands for this setting: GSEA report for vehicle, tirabrutinib 10 mg/kg vs vehicle.
[5] abbreviates: read-out: Percent control / Tirabrutinib.
Setting [6] is: read-out: Percent control / Acalabrutinib.
Setting [7] is: read-out: Percent control / Ibrutinib.
Where [8] appears, read: read-out: Percent control / Zanubrutinib.

Read-outs that look alike come from different tables or passages of the source.

Chain of TAOK3 (Q9H2K8 whole entry): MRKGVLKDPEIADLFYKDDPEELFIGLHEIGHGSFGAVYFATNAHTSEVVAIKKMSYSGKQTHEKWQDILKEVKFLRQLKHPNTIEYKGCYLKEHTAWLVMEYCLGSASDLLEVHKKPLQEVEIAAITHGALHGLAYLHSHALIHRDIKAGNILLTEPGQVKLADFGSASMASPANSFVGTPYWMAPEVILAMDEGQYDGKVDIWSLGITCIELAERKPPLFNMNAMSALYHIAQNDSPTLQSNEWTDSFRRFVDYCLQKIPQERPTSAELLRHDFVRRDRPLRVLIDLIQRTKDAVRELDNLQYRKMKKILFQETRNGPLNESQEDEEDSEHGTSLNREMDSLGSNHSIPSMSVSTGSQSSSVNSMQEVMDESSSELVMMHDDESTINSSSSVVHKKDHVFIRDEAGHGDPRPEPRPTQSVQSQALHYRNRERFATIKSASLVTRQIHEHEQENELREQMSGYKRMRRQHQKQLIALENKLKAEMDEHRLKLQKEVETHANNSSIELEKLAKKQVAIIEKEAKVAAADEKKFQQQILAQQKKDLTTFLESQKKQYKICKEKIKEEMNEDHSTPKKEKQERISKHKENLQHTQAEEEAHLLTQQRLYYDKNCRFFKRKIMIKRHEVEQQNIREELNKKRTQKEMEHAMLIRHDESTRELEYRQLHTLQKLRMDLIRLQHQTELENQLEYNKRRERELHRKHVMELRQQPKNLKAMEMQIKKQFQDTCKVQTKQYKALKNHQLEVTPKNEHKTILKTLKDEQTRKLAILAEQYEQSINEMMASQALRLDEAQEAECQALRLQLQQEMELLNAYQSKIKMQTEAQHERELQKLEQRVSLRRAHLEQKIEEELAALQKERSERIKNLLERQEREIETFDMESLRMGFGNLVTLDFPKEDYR
T2 sequence (Q05397 whole entry): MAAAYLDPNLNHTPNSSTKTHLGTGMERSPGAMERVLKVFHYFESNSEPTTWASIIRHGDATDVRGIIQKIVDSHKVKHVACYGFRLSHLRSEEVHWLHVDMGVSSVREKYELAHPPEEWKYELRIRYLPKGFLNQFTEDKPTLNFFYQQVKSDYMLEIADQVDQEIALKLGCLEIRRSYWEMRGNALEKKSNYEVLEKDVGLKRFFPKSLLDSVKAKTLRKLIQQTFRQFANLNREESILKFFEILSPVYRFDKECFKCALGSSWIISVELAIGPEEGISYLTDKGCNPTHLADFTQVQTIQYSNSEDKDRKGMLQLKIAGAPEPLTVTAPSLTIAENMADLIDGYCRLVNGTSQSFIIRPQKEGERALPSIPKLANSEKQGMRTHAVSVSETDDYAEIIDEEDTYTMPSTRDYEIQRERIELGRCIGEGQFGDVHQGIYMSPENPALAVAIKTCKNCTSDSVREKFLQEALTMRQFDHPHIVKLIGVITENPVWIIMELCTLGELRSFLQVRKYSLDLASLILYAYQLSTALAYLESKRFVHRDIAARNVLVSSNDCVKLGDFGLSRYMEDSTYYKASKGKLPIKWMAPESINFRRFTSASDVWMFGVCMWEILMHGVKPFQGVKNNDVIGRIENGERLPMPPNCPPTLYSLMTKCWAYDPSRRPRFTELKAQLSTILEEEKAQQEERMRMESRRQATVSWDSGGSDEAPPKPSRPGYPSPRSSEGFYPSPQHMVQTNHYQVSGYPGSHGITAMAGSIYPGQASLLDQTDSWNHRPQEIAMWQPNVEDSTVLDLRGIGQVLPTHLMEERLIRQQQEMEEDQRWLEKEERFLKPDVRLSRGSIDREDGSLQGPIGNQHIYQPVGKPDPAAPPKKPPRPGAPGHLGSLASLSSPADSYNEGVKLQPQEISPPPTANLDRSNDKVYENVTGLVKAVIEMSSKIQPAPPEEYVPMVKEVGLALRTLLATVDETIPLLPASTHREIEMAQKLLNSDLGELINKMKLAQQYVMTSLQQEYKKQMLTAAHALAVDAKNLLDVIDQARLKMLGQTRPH
Chain of ACVRL1 (P37023 whole entry): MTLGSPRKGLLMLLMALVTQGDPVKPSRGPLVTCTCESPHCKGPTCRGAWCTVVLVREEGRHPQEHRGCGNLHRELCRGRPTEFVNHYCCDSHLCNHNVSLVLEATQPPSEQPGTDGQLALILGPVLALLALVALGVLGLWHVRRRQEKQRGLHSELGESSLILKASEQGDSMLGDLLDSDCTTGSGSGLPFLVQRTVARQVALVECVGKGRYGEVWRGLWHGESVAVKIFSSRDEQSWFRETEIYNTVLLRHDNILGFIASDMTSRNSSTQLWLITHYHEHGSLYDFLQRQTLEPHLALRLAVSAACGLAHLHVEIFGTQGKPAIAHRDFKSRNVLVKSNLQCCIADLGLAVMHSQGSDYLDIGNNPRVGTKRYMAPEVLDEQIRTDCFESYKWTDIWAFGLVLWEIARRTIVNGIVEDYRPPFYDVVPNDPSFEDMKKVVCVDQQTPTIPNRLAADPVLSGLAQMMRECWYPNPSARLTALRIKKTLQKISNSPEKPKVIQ
Chain of CSK (P41240 whole entry): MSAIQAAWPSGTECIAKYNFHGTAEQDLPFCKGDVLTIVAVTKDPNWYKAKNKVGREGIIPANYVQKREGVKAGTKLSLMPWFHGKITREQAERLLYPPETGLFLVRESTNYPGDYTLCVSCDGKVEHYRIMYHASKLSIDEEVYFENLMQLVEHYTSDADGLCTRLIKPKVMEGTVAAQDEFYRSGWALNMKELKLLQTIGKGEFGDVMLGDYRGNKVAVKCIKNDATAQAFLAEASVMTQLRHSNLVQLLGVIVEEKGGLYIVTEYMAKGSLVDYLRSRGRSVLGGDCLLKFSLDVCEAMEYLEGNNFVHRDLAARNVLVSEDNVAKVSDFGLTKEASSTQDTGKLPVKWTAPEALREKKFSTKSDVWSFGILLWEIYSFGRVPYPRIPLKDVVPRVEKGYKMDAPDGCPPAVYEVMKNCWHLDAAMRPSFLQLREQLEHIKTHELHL
T3 sequence (Q9Y2K2 whole entry): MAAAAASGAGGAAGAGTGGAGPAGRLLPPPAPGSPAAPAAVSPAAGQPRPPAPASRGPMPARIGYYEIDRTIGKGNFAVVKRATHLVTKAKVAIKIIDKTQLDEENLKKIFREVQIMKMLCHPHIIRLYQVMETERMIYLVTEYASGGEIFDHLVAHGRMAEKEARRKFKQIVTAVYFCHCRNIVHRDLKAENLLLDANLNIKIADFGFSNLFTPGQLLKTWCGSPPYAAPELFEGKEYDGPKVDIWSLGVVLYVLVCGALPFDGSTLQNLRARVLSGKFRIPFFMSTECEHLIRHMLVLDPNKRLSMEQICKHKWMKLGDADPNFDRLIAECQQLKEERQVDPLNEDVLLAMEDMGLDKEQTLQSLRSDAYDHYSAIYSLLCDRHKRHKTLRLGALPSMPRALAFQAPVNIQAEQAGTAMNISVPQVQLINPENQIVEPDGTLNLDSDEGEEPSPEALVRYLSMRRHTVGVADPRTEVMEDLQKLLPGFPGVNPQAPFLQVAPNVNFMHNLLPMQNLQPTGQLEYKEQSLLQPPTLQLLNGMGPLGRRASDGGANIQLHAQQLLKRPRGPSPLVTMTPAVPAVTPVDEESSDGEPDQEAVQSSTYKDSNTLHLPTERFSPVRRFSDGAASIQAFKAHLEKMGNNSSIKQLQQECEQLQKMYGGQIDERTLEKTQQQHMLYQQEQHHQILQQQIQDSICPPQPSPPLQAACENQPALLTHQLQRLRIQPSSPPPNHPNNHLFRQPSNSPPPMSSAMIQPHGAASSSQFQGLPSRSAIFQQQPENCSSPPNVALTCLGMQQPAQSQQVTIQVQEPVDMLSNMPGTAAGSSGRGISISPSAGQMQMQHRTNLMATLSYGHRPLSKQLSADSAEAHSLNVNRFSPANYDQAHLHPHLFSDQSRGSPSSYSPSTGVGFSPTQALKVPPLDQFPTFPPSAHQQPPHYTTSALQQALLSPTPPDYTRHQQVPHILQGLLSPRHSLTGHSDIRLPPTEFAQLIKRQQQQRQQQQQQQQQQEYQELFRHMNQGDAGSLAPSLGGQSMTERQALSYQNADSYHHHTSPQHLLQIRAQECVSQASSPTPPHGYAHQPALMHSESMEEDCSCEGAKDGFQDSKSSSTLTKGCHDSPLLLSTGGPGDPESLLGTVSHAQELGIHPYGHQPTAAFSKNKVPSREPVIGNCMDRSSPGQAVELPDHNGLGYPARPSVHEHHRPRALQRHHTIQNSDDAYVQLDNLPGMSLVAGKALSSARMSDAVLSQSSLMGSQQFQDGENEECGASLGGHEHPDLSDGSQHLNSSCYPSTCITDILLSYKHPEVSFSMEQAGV
Chain of ACVR2B (Q13705 whole entry): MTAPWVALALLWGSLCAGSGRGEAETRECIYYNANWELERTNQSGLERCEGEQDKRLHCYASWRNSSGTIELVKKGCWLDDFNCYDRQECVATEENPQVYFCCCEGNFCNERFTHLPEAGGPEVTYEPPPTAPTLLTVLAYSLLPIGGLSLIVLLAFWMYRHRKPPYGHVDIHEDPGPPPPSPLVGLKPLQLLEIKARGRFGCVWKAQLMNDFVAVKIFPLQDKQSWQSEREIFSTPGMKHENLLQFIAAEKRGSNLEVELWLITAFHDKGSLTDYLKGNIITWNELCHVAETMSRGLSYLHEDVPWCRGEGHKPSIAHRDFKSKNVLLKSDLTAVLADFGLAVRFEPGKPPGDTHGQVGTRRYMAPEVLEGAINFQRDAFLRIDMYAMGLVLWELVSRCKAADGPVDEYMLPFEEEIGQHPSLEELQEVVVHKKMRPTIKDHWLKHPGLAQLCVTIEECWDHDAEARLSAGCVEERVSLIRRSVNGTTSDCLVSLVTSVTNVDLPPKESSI

For the compound `CC#CC(=O)N1CC[C@@H](n2c(=O)n(-c3ccc(Oc4ccccc4)cc3)c3c(N)ncnc32)C1` [Tirabrutinib], the inhibition at 0.3 µM on BTK came out at 97%. Further, the IC50 in the assay with B-cells in human PBMC came out at 13.8 nM. The “IRF4, MYC, and mTORC1 pathway-related genes (GSEA)” value with TMD8 xenograft tumor (10 mg/kg vs vehicle) was “downregulated”. For the same compound, in the assay on TMD8 xenograft tumor (setting [3]), the “NES DESCARTES_FETAL_LUNG_LYMPHOID_CELLS” value amounted to 2.406, the “NES DESCARTES_FETAL_STOMACH_LYMPHOID_CELLS” value is recorded as 2.57, the “NES GOBP_CYTOKINE_PRODUCTION_INVOLVED_IN_INFLAMMATORY_RESPONSE” value is reported as 2.462 and the “NES MORI_PLASMA_CELL_DN” value turned out to be 2.456. Besides, in the assay on TMD8 xenograft tumor (setting [3]), the “NES REACTOME_GENERATION_OF_SECOND_MESSENGER_MOLECULES” value is reported as 2.407. For the same compound, in the assay on TMD8 xenograft tumor (setting [4]), the “NES ELVIDGE_HIF1A_TARGETS_DN” value is recorded as -2.295, the “NES GSE29614_CTRL_VS_DAY7_TIV_FLU_VACCINE_PBMC_DN” value was -2.25, the “NES MENSE_HYPOXIA_UP” value is recorded as -2.505 and the “NES QI_HYPOXIA” value is reported as -2.398. Besides, in the assay on TMD8 xenograft tumor (setting [4]), the “NES TSANG_PBMC_FLUVIRIN_PANDEMRIX_ADULT_CORR_WITH_CELL_FREQ_CD27HI_CD38HI_CD20_NEG_PLASMABLASTS_AND_CD38PLUS_OF_IGD_CD27PLUS_MEM_B_CELLS_7DY_POSITIVE” value is -2.3945. Besides, the remaining binding at 0.3 µM at ACVRL1 (setting [5]) was determined as 94%. For the same compound, the remaining binding at 0.3 µM on FLT3(D835H) (setting [5]) is 95%. The concentration for half-maximal inhibition (IC50) at CSK worked out at 0.449 µM. Further, the inhibition at 0.3 µM on TEC [1] (300 nM, read-out: inhibition of kinase binding (KINOMEscan)) is 92.2%.
Take `CC#CC(=O)N1CCC[C@H]1c1nc(-c2ccc(C(=O)Nc3ccccn3)cc2)c2c(N)nccn12` [Acalabrutinib]: the remaining binding at 0.3 µM on ACVR2B (setting [6]) is 85%; at CDKL1 (setting [6]), 93%; at FAK (setting [6]), 79%; at PRKCI (setting [6]), 87%; at QSK (setting [6]) it was 90%; at TAOK3 (setting [6]) it was 99%. At WEE2 (setting [6]), the remaining binding at 0.3 µM was found to be 89%. Besides, the IC50 at CSK is 6.65 µM.
With `C=CC(=O)N1CCC[C@@H](n2nc(-c3ccc(Oc4ccccc4)cc3)c3c(N)ncnc32)C1` [Ibrutinib], the remaining binding at 0.3 µM came out at 25% at FLT3(D835H) (setting [7]), 98% at TAOK3 (setting [7]) and 93% on WEE2 (setting [7]).
On to `C=CC(=O)N1CCC([C@@H]2CCNc3c(C(N)=O)c(-c4ccc(Oc5ccccc5)cc4)nn32)CC1` [Zanubrutinib], for which the remaining binding at 0.3 µM on ACVR2B (setting [8]) amounted to 91%; on ACVRL1 (setting [8]), 75%; on CDKL1 (setting [8]) it was 82%; on FAK (setting [8]), 100%; at PRKCI (setting [8]), 68%; at QSK (setting [8]) it was 45%. The compound further gave a Percent control at TEC [1] (kinase TEC (Entrez TEC)) of 20%. Also, the IC50 on TEC [2] amounted to 4.47 nM.
